Assay results from ChEMBL document CHEMBL1156974, “Design, synthesis and in vitro/in vivo evaluation of orally bioavailable prodrugs of a catechol-O-methyltransferase inhibitor” (Bioorg Med Chem Lett, 2010).
≈ marks a conversion by molar mass, not a printed value.

Tests used:
[1] = Distribution coefficient, log D at pH 4.0 by HPLC analysis; assay type: physicochemical; conditions: octanol/water
[2] = Uncoupling activity in Wistar rat mitochondria assessed as increase in oxygen consumption by mitochondrial respiration assay relative to 10 uM dinitrophenol; assay type: ADME
[3] = Chemical stability in fasted state simulated intestinal fluid up to 8 hrs by HPLC analysis; assay type: physicochemical; conditions: simulated gi fluid
[4] = Distribution coefficient, log D at pH 7.4 by HPLC analysis; assay type: physicochemical; conditions: octanol/water
[5] = Aqueous solubility in HCl buffer at pH 1.2 by HPLC analysis; assay type: physicochemical
[6] = Aqueous solubility in acetate buffer at pH 4.0 by HPLC analysis; assay type: physicochemical
[7] = Aqueous solubility in phosphate buffer at pH 7.4 by HPLC analysis; assay type: physicochemical
[8] = Distribution coefficient, log D at pH 1.2 by HPLC analysis; assay type: physicochemical; conditions: octanol/water
[9] = Chemical stability in […] up to 1 week by HPLC analysis; assay type: physicochemical; conditions: pH 4, 168 h
[10] = Chemical stability in phosphate buffer at pH 7.4 up to 1 week by HPLC analysis; assay type: physicochemical; conditions: pH 7.4, 168 h
Serum = assay: Metabolic stability in human serum up to 8 hrs by HPLC analysis; assay type: ADME, cell-free
[11] = Half life in rat liver homogenate by HPLC analysis; assay type: ADME, tissue-based
[12] = target: T1, Catechol O-methyltransferase (Homo sapiens, UniProt P21964); assay: Inhibition of human recombinant COMT by microplate screening assay
T1 sequence (P21964 whole entry): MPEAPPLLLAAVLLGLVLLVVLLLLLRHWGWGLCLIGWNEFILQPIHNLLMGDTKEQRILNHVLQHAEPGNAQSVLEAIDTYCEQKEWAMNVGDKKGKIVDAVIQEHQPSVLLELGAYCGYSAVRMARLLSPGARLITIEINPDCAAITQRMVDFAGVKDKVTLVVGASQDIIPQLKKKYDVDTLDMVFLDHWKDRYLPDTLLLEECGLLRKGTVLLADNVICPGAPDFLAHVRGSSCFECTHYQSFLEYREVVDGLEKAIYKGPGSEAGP

[13] = Chemical stability in acetate buffer assessed as hydrolysis half life at pH 4.0 by HPLC analysis; assay type: physicochemical
[14] = Chemical stability in phosphate buffer assessed as hydrolysis half life at pH 7.4 by HPLC analysis; assay type: physicochemical
Rattus norvegicus = assay: AUC in Wistar rat at 10 umol/kg, po up to 6 hrs by LC/MS/MS relative to 3-Chloro-5,6-dihydroxy-7-nitro-benzo[b]thiophene-2-carboxylic acid; assay type: ADME, organism-based, Plasma; conditions: in vivo
[15] = Half life in human serum by HPLC analysis; assay type: ADME, cell-free
[16] = Chemical stability in fasted state simulated intestinal fluid assessed as hydrolysis half life by HPLC analysis; assay type: physicochemical
[17] = HCl buffer, read-out: solubility
[18] = acetate buffer, read-out: solubility
[19] = buffer, BLD = below limit of detection

Structure (SMILES)	Uncoupling concentration [2]	logD ([4]; read-out: logD)	solubility [5, 17]	solubility [6, 18]	solubility [7]	Stability [10]	Stability (Serum)	half-life [11]	Ki [12]	solubility [5, 19]	half-life [13]	half-life [14]	fold change (FC) (Rattus norvegicus)	half-life [15]	other results
O=C(O)c1sc2c([N+](=O)[O-])c(O)c(O)cc2c1Cl	> 50 µM	0.06	3.9 µg/mL (≈ 13.5 µM)	53 µg/mL (≈ 183 µM)	15000 µg/mL (≈ 51800 µM)										logD [1]: 1.8; Stability [3]: Stable; logD [8]: 3.64
COC(=O)c1sc2c([N+](=O)[O-])c(O)c(O)cc2c1Cl	> 10 µM	1.51	0.7 µg/mL (≈ 2.31 µM)	4.2 µg/mL (≈ 13.8 µM)	11.4 µg/mL (≈ 37.5 µM)	Stable	Stable	0.33 h	2.2 nM						Stability [9]: Stable
CCCOC(=O)c1sc2c([N+](=O)[O-])c(O)c(O)cc2c1Cl	> 5 µM	2.45		0.5 µg/mL (≈ 1.51 µM)	10.8 µg/mL (≈ 32.6 µM)	Stable	Stable	0.34 h	9.2 nM	BLD	744 h				
O=C(OCc1ccccc1)c1sc2c([N+](=O)[O-])c(O)c(O)cc2c1Cl	> 10 µM				6.9 µg/mL (≈ 18.2 µM)		Stable	0.865 h	10.2 nM	BLD		21.6 h			logD ([4]; BLD = below limit of detection): BLD; solubility [6, 19]: BLD
CC(C)C(=O)OCOC(=O)c1sc2c([N+](=O)[O-])c(O)c(O)cc2c1Cl	> 50 µM	2.91			≥ 200 µg/mL			≤ 0.0167 h	17 nM	BLD	202 h	7.6 h	2	5.1 h	Stability [3]: Stable; solubility [6, 19]: BLD
CC(OC(=O)c1sc2c([N+](=O)[O-])c(O)c(O)cc2c1Cl)OC(=O)C(C)C (stereo unspecified)	> 50 µM	3.02		0.6 µg/mL (≈ 1.49 µM)	258 µg/mL (≈ 639 µM)			≤ 0.0167 h	17 nM	BLD		48 h	0.5	32.3 h	Stability [3]: Stable
CCCC(=O)OCOC(=O)c1sc2c([N+](=O)[O-])c(O)c(O)cc2c1Cl	> 50 µM							≤ 0.0167 h	10.6 nM			2.5 h		5.3 h	
CCCCOC(=O)c1sc2c([N+](=O)[O-])c(O)c(O)cc2c1Cl	> 2.5 µM			0.7 µg/mL (≈ 2.02 µM)	3.2 µg/mL (≈ 9.25 µM)	Stable	Stable	0.698 h	1.3 nM	BLD					logD ([4]; BLD = below limit of detection): BLD
CC(C)OC(=O)c1sc2c([N+](=O)[O-])c(O)c(O)cc2c1Cl	> 1 µM	1.14		0.5 µg/mL (≈ 1.51 µM)	18.7 µg/mL (≈ 56.4 µM)	Stable	Stable	2.18 h	1.1 nM	BLD	552 h				
CCCC(=O)OC(C)OC(=O)c1sc2c([N+](=O)[O-])c(O)c(O)cc2c1Cl (stereo unspecified)	> 50 µM	2.16	0.5 µg/mL (≈ 1.24 µM)	4.6 µg/mL (≈ 11.4 µM)	60.4 µg/mL (≈ 150 µM)			≤ 0.0167 h	16.6 nM			4.5 h		25 h	
CC(C)C(N)C(=O)OCOC(=O)c1sc2c([N+](=O)[O-])c(O)c(O)cc2c1Cl (stereo unspecified)	25 µM		6600 µg/mL (≈ 15800 µM)	17.5 µg/mL (≈ 41.8 µM)	10 µg/mL (≈ 23.9 µM)			≤ 0.0167 h	6 nM		40.8 h	2 h	0.4	0.06 h	half-life [16]: 31.7 h
O=C(OCc1coc(=O)o1)c1sc2c([N+](=O)[O-])c(O)c(O)cc2c1Cl								≤ 0.0167 h	1.6 nM		93.6 h	11.7 h	2.1	0.03 h	half-life [16]: 167 h
